Assay results reported in patent US5329002A, “Antibacterial cephalosporin compounds” (Hoffmann-La Roche Inc., priority 1990, dated 1994).
Where a name gives a salt, the structure may show the parent alone. Read-outs that look alike come from different tables or passages of the source.

Assays:
Format in all cases: cell-based
P. aeruginosa 18 S/H = assay: In vitro MIC, Broth Dilution Method, P. aeruginosa 18 S/H; conditions: Pseudomonas aeruginosa
Text: (§1) The in vitro activity of the compounds of the present invention as measured by the Minimum Inhibitory Concentration (MIC) in micrograms/ml utilizing the Broth Dilution Method against a variety of Gram-positive and Gram-negative organisms, is as follows:
(§2) Concentration (MIC) in micrograms/ml utilizing the Broth Dilution Method against a variety of Gram-positive and Gram-negative organisms, is as follows:
(§3) In Vitro MIC (μg/ml), Broth Dilution Method

S. marcescens 1071 = assay: In vitro MIC, Broth Dilution Method, S. marcescens 1071
S. pneumoniae 6301 = assay: In vitro MIC, Broth Dilution Method, S. pneumoniae 6301
Text: as §1, §2, §3

S. aureus 1059B = assay: In vitro MIC, Broth Dilution Method, S. aureus 1059B; conditions: Staphylococcus aureus
E. cloacae 5699 = assay: In vitro MIC, Broth Dilution Method, E. cloacae 5699
Text: as §1, §2, §3

P. aeruginosa 8710 = assay: In vitro MIC, Broth Dilution Method, P. aeruginosa 8710; conditions: Pseudomonas aeruginosa
Text: as §1, §2, §3

E. cloacae P99 = assay: In vitro MIC, Broth Dilution Method, E. cloacae P99; conditions: Enterobacter cloacae, P99, read-out: In Vitro MIC
Text: as §1, §2, §3

E. coli ATCC 25922 = assay: In vitro MIC, Broth Dilution Method, E. coli ATCC 25922; conditions: Escherichia coli
Text: as §1, §2, §3

S. aureus ATCC 29213 = assay: In vitro MIC, Broth Dilution Method, S. aureus ATCC 29213; conditions: Staphylococcus aureus
E. coli TEM 1 = assay: microbe, parasite or virus in culture; conditions: Escherichia coli, TEM1, read-out: In Vitro MIC
Text: as §1, §2, §3

S. aureus 95 = assay: In vitro MIC, Broth Dilution Method, S. aureus 95
Text: as §1, §2, §3

E. faecalis ATCC 29212 = assay: In vitro MIC, Broth Dilution Method, E. faecalis ATCC 29212; conditions: Enterococcus faecalis, ATCC29212
Text: as §1, §2, §3

[1] = Streptococcus pneumoniae, Broth Dilution Method, S. pneumoniae 6301, read-out: In Vitro MIC
[2] = Enterobacter cloacae, 5699, read-out: In Vitro MIC
[3] = Staphylococcus aureus, 95, read-out: In Vitro MIC
[4] = Serratia marcescens, Broth Dilution Method, S. marcescens 1071, read-out: In Vitro MIC
[5] = ATCC25922, read-out: In Vitro MIC
[6] = ATCC29213, Broth Dilution Method, S. aureus ATCC 29213, read-out: In Vitro MIC
[7] = Staphylococcus aureus, Broth Dilution Method, S. aureus 95, read-out: In Vitro MIC
[8] = Streptococcus pneumoniae, 6301, read-out: In Vitro MIC
[9] = Enterobacter cloacae, Broth Dilution Method, E. cloacae 5699, read-out: In Vitro MIC

## CC(C)(O/N=C(\C(=O)N[C@@H]1C(=O)N2C(C(=O)[O-])=C(C[N+]3(C)CCN(c4c(F)cc5c(=O)c(C(=O)O)cn(CCF)c5c4F)CC3)CS[C@H]12)c1csc(N)n1)C(=O)O [Compound C, [6R-[6α,7β(Z)]]-1-[[7-[[[(2-amino-4-thiazolyl)[1-(1-carboxy-1-methyl)ethoxy]imino]acetyl]amino]-8-oxo-5-thia-1-azabicyclo-[4.2.0]oct-2-en-3-yl]methyl]-4-[3-carboxy-1-(2-fluoroethyl)-6,8-difluoro-1,4-dihydro-4-oxoquinolin-7-yl]-1-methylpiperazinium hydroxide inner salt monosodium salt]
P. aeruginosa 18 S/H
  MIC: 8 µg/mL
S. marcescens 1071; Serratia marcescens, 1071, read-out: In Vitro MIC
  MIC: 0.5 µg/mL
S. pneumoniae 6301; [1]
  MIC: 1 µg/mL
S. aureus 1059B
  MIC: 8 µg/mL
E. cloacae 5699; [2]
  MIC: 0.5 µg/mL
P. aeruginosa 8710
  MIC: 8 µg/mL
E. cloacae P99
  MIC: 2 µg/mL
E. coli ATCC 25922; ATCC25922, Broth Dilution Method, E. coli ATCC 25922, read-out: In Vitro MIC
  MIC: 0.25 µg/mL
S. aureus ATCC 29213; ATCC29213, read-out: In Vitro MIC
  MIC: 4 µg/mL
E. coli TEM 1
  MIC: 0.5 µg/mL
S. aureus 95; [3]
  MIC: 4 µg/mL
E. faecalis ATCC 29212
  MIC: 32 µg/mL

## C[N+]1(CC2=C(C(=O)O)N3C(=O)[C@@H](NC=O)[C@H]3SC2)CCN(c2c(F)cc3c(=O)c(C(=O)O)cn(CCF)c3c2F)CC1 [Compound E, trifluoroacetate salt]
P. aeruginosa 18 S/H
  MIC: 8 µg/mL
S. marcescens 1071; [4]
  MIC: 1 µg/mL
S. pneumoniae 6301; [1]
  MIC: 1 µg/mL
S. aureus 1059B
  MIC: 0.5 µg/mL
E. cloacae 5699; [2]
  MIC: 0.5 µg/mL
P. aeruginosa 8710
  MIC: 8 µg/mL
E. cloacae P99
  MIC: 0.5 µg/mL
E. coli ATCC 25922; [5]
  MIC: 0.5 µg/mL
S. aureus ATCC 29213; [6]
  MIC: 0.5 µg/mL
E. coli TEM 1
  MIC: 0.5 µg/mL
S. aureus 95; [7]
  MIC: 1 µg/mL
E. faecalis ATCC 29212
  MIC: 32 µg/mL

## CO/N=C(\C(=O)N[C@@H]1C(=O)N2C(C(=O)O)=C(C[N+]3(C)CCN(c4c(F)cc5c(=O)c(C(=O)O)cn(CCF)c5c4F)CC3)CS[C@H]12)c1csc(N)n1 [Compound A, [6R-[6α,7β(Z)]]-1-[7-[[[(2-amino-4-thiazolyl)(methoxyimino)acetyl]amino]-2-carboxy-8-oxo-5-thia-1-azabicyclo[4.2.0]oct-2-en-3-yl]methyl]-4-[3-carboxy-6,8-difluoro-1-(2-fluoroethyl)-1,4-dihydro-4-oxo-7-quinolinyl]-1-methylpiperazinium iodide]
P. aeruginosa 18 S/H
  MIC: 8 µg/mL
S. marcescens 1071; [4]
  MIC: 0.5 µg/mL
S. pneumoniae 6301; [8]
  MIC: 0.063 µg/mL
S. aureus 1059B
  MIC: 2 µg/mL
E. cloacae 5699; [9]
  MIC: 0.5 µg/mL
P. aeruginosa 8710
  MIC: 8 µg/mL
E. cloacae P99
  MIC: 0.5 µg/mL
E. coli ATCC 25922; [5]
  MIC: 0.25 µg/mL
S. aureus ATCC 29213; [6]
  MIC: 4 µg/mL
E. coli TEM 1
  MIC: 0.25 µg/mL
S. aureus 95; [7]
  MIC: 4 µg/mL
E. faecalis ATCC 29212
  MIC: 64 µg/mL

## CCn1cc(C(=O)O)c(=O)c2cc(F)c(N3CC[N+](C)(CC4=C(C(=O)O)N5C(=O)[C@@H](NC(=O)/C(=N\OC)c6csc(N)n6)[C@H]5SC4)CC3)cc21 [Compound D, [6R-[6α,7β(Z)]]-1-[[7-[[(2-amino-4-thiazolyl)(methoxyimino)acetyl]amino]-2-carboxy-8-oxo-5-thia-1-azabicyclo[4.2.0]-oct-2-en-3-yl]methyl]-4-(3-carboxy-1-ethyl-6-fluoro-1,4-dihydro-4-oxo-7-quinolinyl)-1-methylpiperazinium iodide]
P. aeruginosa 18 S/H
  MIC: 32 µg/mL
S. marcescens 1071; [4]
  MIC: 0.5 µg/mL
S. pneumoniae 6301; [8]
  MIC: 0.063 µg/mL
S. aureus 1059B
  MIC: 2 µg/mL
E. cloacae 5699; [9]
  MIC: 1 µg/mL
P. aeruginosa 8710
  MIC: 8 µg/mL
E. cloacae P99
  MIC: 1 µg/mL
E. coli ATCC 25922; [5]
  MIC: 0.5 µg/mL
S. aureus ATCC 29213; [6]
  MIC: 4 µg/mL
E. coli TEM 1
  MIC: 0.5 µg/mL
S. aureus 95; [7]
  MIC: 4 µg/mL
E. faecalis ATCC 29212
  MIC: 32 µg/mL

## C[N+]1(CC2=C(C(=O)O)N3C(=O)[C@@H](NC(=O)COc4ccccc4)[C@H]3SC2)CCN(c2c(F)cc3c(=O)c(C(=O)O)cn(CCF)c3c2F)CC1.[I-] [Compound B, (6R-trans)-4-[3-carboxy-1-(2-fluoroethyl)-6,8-difluoro-1,4-dihydro-4-oxoquinolin-7-yl]-1-[[2-carboxy-8-oxo-7-[(phenoxyacetyl)amino]-5-thia-1-azabicyclo-[4.2.0]oct-2-en-3-yl]methyl]-1-methyl-piperazinium iodide]
P. aeruginosa 18 S/H
  MIC: 4 µg/mL
S. pneumoniae 6301; [1]
  MIC: 0.25 µg/mL
E. cloacae 5699; [2]
  MIC: 0.5 µg/mL
P. aeruginosa 8710
  MIC: 8 µg/mL
E. cloacae P99
  MIC: 0.5 µg/mL
E. coli ATCC 25922; [5]
  MIC: 0.5 µg/mL
E. coli TEM 1
  MIC: 0.5 µg/mL
S. aureus 95; [3]
  MIC: 1 µg/mL
E. faecalis ATCC 29212
  MIC: 32 µg/mL
